Each structure is given as a SMILES string.

The first test relates to H3K36me3 in A549 cells. Briefly: In-Cell Western (ICW) assay of SETD2 inhibitors (A549 assay). The test is classed as cell-based, human. The following applies: A549 cells; read-out: SETD2 A549. The procedure, abridged:
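A549 cells seeded at 4,000/well onto compound and incubated 3 days at 37° C. Methanol-fixed cells stained overnight at 4° C with anti-H3K36me3 (1:1000), then IRDye 800CW secondary with DRAQ5 DNA counterstain. Plates read by Licor imaging at 700 and 800 channels.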
Take `Cc1ccc(F)c2cc(C(=O)Nc3ccn(C4CCN(C)CC4)n3)[nH]c12` [compound 548]: the IC50 was over 25000 nM.

Consider `Cc1ccc(F)c2cc(C(=O)Nc3cc(N4CCN(C)CC4)c4cnccc4c3)[nH]c12` [compound 401], for which the IC50 was found to be 2400 nM.

Consider `Cc1cc(CCN2CCN(C)CC2)cnc1C(CCc1ccccc1)NC(=O)c1cc2c(F)ccc(C)c2[nH]1` (stereo not shown) [compound 414], for which the IC50 came to 3200 nM.

Regarding `Cc1ccc(F)c2cc(C(=O)Nc3cccc(N4CC5(CCN(CC(F)F)CC5)C4)c3)[nH]c12` [compound 41], the IC50 is 100 nM.

With `Cc1ccc(F)c2cc(C(=O)NC(c3nn4ccccc4c3C)C3CC3)[nH]c12` (stereo not shown) [compound 424], the IC50 was found to be 3800 nM.

`Cc1ccc(F)c2cc(C(=O)Nc3cccc(S(C)(=O)=O)c3)[nH]c12` [compound 399]: the IC50 was determined as 2400 nM.

The same test, now with this note: Homo sapiens; A549 cells; read-out: SETD2 A549.
Take `Cc1ccc(F)c2cc(C(=O)Nc3cccc(NC4CCN(C)C4)c3)[nH]c12` (stereo not shown) [compound 330]: the IC50 is 1600 nM.

As to `Cc1ccc(F)c2cc(C(=O)Nc3cccc(-c4nccn4C)c3)[nH]c12` [compound 171], the IC50 turned out to be 300 nM.

Turning to `Cc1ccc(F)c2cc(C(=O)Nc3cccc(-c4nnc(N)o4)c3)[nH]c12` [compound 319], the IC50 worked out at 1400 nM.

With `Cc1cccnc1C(NC(=O)c1cc2cccc(C)c2[nH]1)C(C)(C)C` (stereo not shown) [compound 568], the IC50 was over 25000 nM.

For `CC(=O)N1CCN(c2cc(F)cc(NC(=O)c3cc4c(F)cccc4[nH]3)c2)CC1` [compound 271], the IC50 was 800 nM.

As for `Cc1ccc(F)c2cc(C(=O)Nc3cccc(-c4ncccn4)c3)[nH]c12` [compound 316], the IC50 came out at 1400 nM.

As for `Cc1cccc2cc(C(=O)NCCc3ccccc3-n3ccnc3)[nH]c12` [compound 580], the IC50 was over 25000 nM.

With `Cc1cccnc1C(CCC(=O)N(C)C)NC(=O)c1cc2cccc(C)c2[nH]1` (stereo not shown) [compound 446], the IC50 is 5400 nM.

Regarding `Cc1ccc(F)c2cc(C(=O)Nc3cccc(N4CCC5(CC4)COCCN5)c3)[nH]c12` [compound 95], the IC50 amounted to 200 nM.

As to `Cc1ccc(F)c2cc(C(=O)Nc3cccc(N4CCN(C(=O)N(C)C)CC4)c3)[nH]c12` [compound 55], the IC50 was 100 nM.

For the compound `CC(=O)N(CCO)C1CCN([C@H]2CCC[C@@H](NC(=O)c3cc4c(F)ccc(C)c4[nH]3)C2)C1` (stereo partly shown) [compound 872], the IC50 was 1200 nM.

As to `Cc1ccc(F)c2cc(C(=O)N[C@@H]3CCC[C@H](N4CCC(N5CCCC5=O)C4)C3)[nH]c12` (stereo partly shown) [compound 910], the IC50 worked out at 100 nM.

Take `Cc1ccc(F)c2cc(C(=O)NC(C(=O)N3CCOCC3)c3ccccn3)[nH]c12` (stereo not shown) [compound 560]: the IC50 is over 25000 nM.

`Cc1ccc(F)c2cc(C(=O)N[C@@H]3CCC[C@H](N4CCCN(C)C(=O)C4)C3)[nH]c12` [compound 887]: the IC50 turned out to be 300 nM.

`Cc1ccc(F)c2cc(C(=O)Nc3cccc(N4CCN5C(=O)N(C)CC5C4)c3)[nH]c12` (stereo not shown) [compound 54]: the IC50 was 100 nM.

As for `COCC1(COC)CCN(c2cccc(NC(=O)c3cc4c(F)ccc(C)c4[nH]3)c2)CC1` [compound 173], the IC50 was determined as 300 nM.

With `Cc1ccc(F)c2cc(C(=O)N[C@@H]3CCC[C@H](N4CCN(C(=O)C(C)C)C(C(F)(F)F)C4)C3)[nH]c12` (stereo partly shown) [compound 1112], the IC50 was found to be 20 nM.

For the compound `Cc1ccc(F)c2cc(C(=O)Nc3cccc(-n4cncn4)c3)[nH]c12` [compound 162], the IC50 came out at 300 nM.

Regarding `Cc1ccc(F)c2cc(C(=O)N[C@@H]3CCC[C@@H](N4CCC(N5CCCC5=O)C4)C3)[nH]c12` (stereo partly shown) [compound 911], the IC50 is over 2000 nM.

For `Cc1ccc(F)c2cc(C(=O)N[C@@H]3CCC[C@@H](N4CCC5(CCC(=O)N5)CC4)C3)[nH]c12` [compound 939], the IC50 was over 2000 nM.

For another test, the target named is T1, SETD2(1434-1711) (Homo sapiens, UniProt Q9BYW2).
T1 construct: SETD2 (1434-1711) Assay; catalogue N/A
T1 sequence (Q9BYW2 1434-1711): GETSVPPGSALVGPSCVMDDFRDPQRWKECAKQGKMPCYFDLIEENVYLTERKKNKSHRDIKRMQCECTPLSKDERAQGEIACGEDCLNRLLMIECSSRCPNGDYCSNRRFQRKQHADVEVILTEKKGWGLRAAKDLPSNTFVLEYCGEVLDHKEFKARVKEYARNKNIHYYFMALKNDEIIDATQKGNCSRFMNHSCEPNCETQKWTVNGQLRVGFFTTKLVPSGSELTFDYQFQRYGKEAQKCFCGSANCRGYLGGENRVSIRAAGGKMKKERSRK
Description: SETD2 (1434-1711) assay. In kind it is biochemical. As to conditions: read-out: SETD2 (1434-1711).
Take `Cc1ccc(F)c2cc(C(=O)Nc3cccc(NC4CCN(C)C4)c3)[nH]c12` (stereo not shown) [compound 330]: the IC50 amounted to 70 nM.

In the case of `Cc1ccc(F)c2cc(C(=O)Nc3cccc(-c4nccn4C)c3)[nH]c12` [compound 171], the IC50 amounted to 100 nM.

As for `Cc1ccc(F)c2cc(C(=O)Nc3cccc(-c4nnc(N)o4)c3)[nH]c12` [compound 319], the IC50 worked out at 100 nM.

Take `Cc1cccnc1C(NC(=O)c1cc2cccc(C)c2[nH]1)C(C)(C)C` (stereo not shown) [compound 568]: the IC50 was 13900 nM.

For the compound `CC(=O)N1CCN(c2cc(F)cc(NC(=O)c3cc4c(F)cccc4[nH]3)c2)CC1` [compound 271], the IC50 is 200 nM.

With `Cc1ccc(F)c2cc(C(=O)Nc3cccc(-c4ncccn4)c3)[nH]c12` [compound 316], the IC50 was found to be 100 nM.

With `Cc1cccc2cc(C(=O)NCCc3ccccc3-n3ccnc3)[nH]c12` [compound 580], the IC50 amounted to 24500 nM.

`Cc1cccnc1C(CCC(=O)N(C)C)NC(=O)c1cc2cccc(C)c2[nH]1` (stereo not shown) [compound 446]: the IC50 stood at 6300 nM.

Consider `Cc1ccc(F)c2cc(C(=O)Nc3cccc(N4CCC5(CC4)COCCN5)c3)[nH]c12` [compound 95], for which the IC50 amounted to 20 nM.

Regarding `Cc1ccc(F)c2cc(C(=O)Nc3cccc(N4CCN(C(=O)N(C)C)CC4)c3)[nH]c12` [compound 55], the IC50 stood at 50 nM.

Consider `CC(=O)N(CCO)C1CCN([C@H]2CCC[C@@H](NC(=O)c3cc4c(F)ccc(C)c4[nH]3)C2)C1` (stereo partly shown) [compound 872], for which the IC50 stood at 100 nM.

In the case of `Cc1ccc(F)c2cc(C(=O)N[C@@H]3CCC[C@H](N4CCC(N5CCCC5=O)C4)C3)[nH]c12` (stereo partly shown) [compound 910], the IC50 amounted to 30 nM.

`Cc1ccc(F)c2cc(C(=O)NC(C(=O)N3CCOCC3)c3ccccn3)[nH]c12` (stereo not shown) [compound 560]: the IC50 is over 10000 nM.

For the compound `Cc1ccc(F)c2cc(C(=O)N[C@@H]3CCC[C@H](N4CCCN(C)C(=O)C4)C3)[nH]c12` [compound 887], the IC50 worked out at 100 nM.

With `Cc1ccc(F)c2cc(C(=O)Nc3ccn(C4CCN(C)CC4)n3)[nH]c12` [compound 548], the IC50 turned out to be 5100 nM.

In the case of `Cc1ccc(F)c2cc(C(=O)Nc3cccc(N4CCN5C(=O)N(C)CC5C4)c3)[nH]c12` (stereo not shown) [compound 54], the IC50 worked out at 30 nM.

For the compound `COCC1(COC)CCN(c2cccc(NC(=O)c3cc4c(F)ccc(C)c4[nH]3)c2)CC1` [compound 173], the IC50 was 70 nM.

`Cc1ccc(F)c2cc(C(=O)Nc3cc(N4CCN(C)CC4)c4cnccc4c3)[nH]c12` [compound 401]: the IC50 is 30 nM.

In the case of `Cc1cc(CCN2CCN(C)CC2)cnc1C(CCc1ccccc1)NC(=O)c1cc2c(F)ccc(C)c2[nH]1` (stereo not shown) [compound 414], the IC50 stood at 80 nM.

With `Cc1ccc(F)c2cc(C(=O)N[C@@H]3CCC[C@H](N4CCN(C(=O)C(C)C)C(C(F)(F)F)C4)C3)[nH]c12` (stereo partly shown) [compound 1112], the IC50 was found to be 20 nM.

On to `Cc1ccc(F)c2cc(C(=O)Nc3cccc(N4CC5(CCN(CC(F)F)CC5)C4)c3)[nH]c12` [compound 41], for which the IC50 amounted to 30 nM.

Turning to `Cc1ccc(F)c2cc(C(=O)Nc3cccc(-n4cncn4)c3)[nH]c12` [compound 162], the IC50 worked out at 90 nM.

On to `Cc1ccc(F)c2cc(C(=O)N[C@@H]3CCC[C@@H](N4CCC(N5CCCC5=O)C4)C3)[nH]c12` (stereo partly shown) [compound 911], for which the IC50 stood at 1000 nM.

For `Cc1ccc(F)c2cc(C(=O)NC(c3nn4ccccc4c3C)C3CC3)[nH]c12` (stereo not shown) [compound 424], the IC50 was found to be 700 nM.

Consider `Cc1ccc(F)c2cc(C(=O)Nc3cccc(S(C)(=O)=O)c3)[nH]c12` [compound 399], for which the IC50 worked out at 1800 nM.

With `Cc1ccc(F)c2cc(C(=O)N[C@@H]3CCC[C@@H](N4CCC5(CCC(=O)N5)CC4)C3)[nH]c12` [compound 939], the IC50 amounted to 500 nM.

The values are drawn from patent US12116358B2, “Substituted indoles and methods of use thereof” (EPIZYME, INC., priority 2018, dated 2024).
